Calls of active or inactive are those of the source.
Tests used:
Beta-lactamase [1] = molecular target: Beta-lactamase (Salmonella choleraesuis (strain SC-B67), UniProt Q5J463); assay: Epi-absorbance-based counterscreen for selective VIM-2 inhibitors: dose response biochemical high throughput screening assay to identify inhibitors of TEM-1 serine-beta-lactamase.
Beta-lactamase [2] = molecular target: T1, Beta-lactamase (Pseudomonas aeruginosa, UniProt Q79MP6); assay: inhibition of IMP-1 beta-lactamase activity – biochemical, epi-absorbance, selectivity assay for VIM-2 inhibitor project, dose response (AID 1920)
T1 sequence (Q79MP6 whole entry): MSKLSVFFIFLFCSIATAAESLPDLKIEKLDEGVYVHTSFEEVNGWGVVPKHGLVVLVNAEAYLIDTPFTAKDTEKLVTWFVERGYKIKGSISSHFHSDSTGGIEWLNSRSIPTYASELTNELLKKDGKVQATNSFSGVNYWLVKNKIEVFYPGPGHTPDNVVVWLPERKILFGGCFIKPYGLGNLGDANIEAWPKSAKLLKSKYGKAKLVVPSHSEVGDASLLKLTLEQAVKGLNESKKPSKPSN

Beta-lactamase [3] = molecular target: T1, Beta-lactamase; assay: […] counterscreen for selective VIM-2 inhibitors: dose response biochemical high throughput screening assay to identify inhibitors of IMP-1 metallo-beta-lactamase.
[4] = potency of ADAM10 substrate cleavage blockers – biochemical, QFRET, dose response (AID 743254);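 note: ADAM10 enzyme with the DM2 quenched FRET peptide as substrate; EDANS fluorescence gain as the protease cuts the substrate; inhibitor potency against ADAM10 proteolytic activity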
[5] = molecular target: T2, Sentrin-specific protease 8 (Homo sapiens, UniProt Q96LD8); assay type: functional
T2 sequence (Q96LD8 whole entry): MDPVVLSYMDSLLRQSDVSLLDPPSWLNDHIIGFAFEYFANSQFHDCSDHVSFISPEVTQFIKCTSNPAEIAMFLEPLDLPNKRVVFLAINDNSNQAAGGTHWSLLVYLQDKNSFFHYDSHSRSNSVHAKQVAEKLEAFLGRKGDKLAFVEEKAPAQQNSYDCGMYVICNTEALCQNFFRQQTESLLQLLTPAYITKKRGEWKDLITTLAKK

[6] = molecular target: T2, Sentrin-specific protease 8; assay type: functional; remark: listed apart in the source
[7] = molecular target: SWI/SNF-related matrix-associated actin-dependent regulator of chromatin subfamily A member 2 (Homo sapiens, UniProt P51531); assay: Luminescence-based cell-based high throughput dose response assay to identify activators of the function of SWI/SNF related, matrix associated, actin dependent regulator of chromatin, subfamily a, member 2 (SMARCA2, BRM).; assay type: functional
SWI/SNF-related matrix-associated actin-dependent regulator of chromatin subfamily A member 2, sequence (P51531 whole entry): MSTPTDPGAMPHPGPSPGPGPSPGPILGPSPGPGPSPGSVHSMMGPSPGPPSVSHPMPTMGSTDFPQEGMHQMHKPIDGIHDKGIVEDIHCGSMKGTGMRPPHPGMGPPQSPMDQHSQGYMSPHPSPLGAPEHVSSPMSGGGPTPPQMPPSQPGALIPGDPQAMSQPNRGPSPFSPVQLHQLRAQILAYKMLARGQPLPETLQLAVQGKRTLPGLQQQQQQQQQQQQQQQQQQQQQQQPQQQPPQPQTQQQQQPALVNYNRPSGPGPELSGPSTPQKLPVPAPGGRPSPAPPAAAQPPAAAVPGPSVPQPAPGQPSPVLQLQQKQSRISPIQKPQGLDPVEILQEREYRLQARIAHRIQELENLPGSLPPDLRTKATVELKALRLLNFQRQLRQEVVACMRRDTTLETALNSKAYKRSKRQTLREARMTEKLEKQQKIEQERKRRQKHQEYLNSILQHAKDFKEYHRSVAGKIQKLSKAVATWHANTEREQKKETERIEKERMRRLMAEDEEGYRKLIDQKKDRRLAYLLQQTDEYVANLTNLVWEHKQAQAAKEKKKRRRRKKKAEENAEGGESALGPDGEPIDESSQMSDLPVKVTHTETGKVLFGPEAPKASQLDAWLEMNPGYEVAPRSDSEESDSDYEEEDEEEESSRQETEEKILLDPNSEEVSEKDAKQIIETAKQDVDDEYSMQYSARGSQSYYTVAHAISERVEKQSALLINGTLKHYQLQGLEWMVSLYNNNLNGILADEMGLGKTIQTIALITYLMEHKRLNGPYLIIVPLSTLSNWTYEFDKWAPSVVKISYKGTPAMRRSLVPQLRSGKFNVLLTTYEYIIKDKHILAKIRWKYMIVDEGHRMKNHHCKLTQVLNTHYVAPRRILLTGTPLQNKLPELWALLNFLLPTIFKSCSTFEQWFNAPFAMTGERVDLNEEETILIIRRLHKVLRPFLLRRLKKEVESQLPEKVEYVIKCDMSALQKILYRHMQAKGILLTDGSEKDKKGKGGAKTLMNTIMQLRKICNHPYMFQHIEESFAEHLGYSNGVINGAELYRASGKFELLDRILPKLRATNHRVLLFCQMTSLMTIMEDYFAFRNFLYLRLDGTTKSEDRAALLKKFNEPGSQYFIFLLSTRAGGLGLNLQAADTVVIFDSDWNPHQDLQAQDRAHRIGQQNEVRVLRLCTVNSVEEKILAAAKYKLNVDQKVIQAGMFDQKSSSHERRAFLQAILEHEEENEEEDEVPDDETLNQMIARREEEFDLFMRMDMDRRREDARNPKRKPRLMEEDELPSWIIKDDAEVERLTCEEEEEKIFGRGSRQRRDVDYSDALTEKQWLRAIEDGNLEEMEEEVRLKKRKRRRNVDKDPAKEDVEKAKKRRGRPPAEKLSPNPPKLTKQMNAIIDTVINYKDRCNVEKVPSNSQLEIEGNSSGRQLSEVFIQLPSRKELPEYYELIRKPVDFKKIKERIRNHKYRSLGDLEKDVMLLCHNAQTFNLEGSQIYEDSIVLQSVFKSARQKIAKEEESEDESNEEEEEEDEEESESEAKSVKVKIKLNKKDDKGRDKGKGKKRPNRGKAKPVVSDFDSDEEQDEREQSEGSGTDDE

[8] = Counterscreen for activators of the function of SWI/SNF related, matrix associated, actin dependent regulator of chromatin, subfamily a, member 2 (SMARCA2, BRM): Luminescence-based cell-based high throughput dose response assay to identify non-selective compounds using the VP16 reporter assay.; assay type: functional
cells [9] = assay type: functional, cell-based
[10] = molecular target: T3, Trace amine-associated receptor 1 (Homo sapiens, UniProt Q96RJ0); assay: Fluorescence-based cell-based high throughput dose response assay to identify agonists of the human trace amine associated receptor 1 (TAAR1).; assay type: functional
T3 sequence (Q96RJ0 whole entry): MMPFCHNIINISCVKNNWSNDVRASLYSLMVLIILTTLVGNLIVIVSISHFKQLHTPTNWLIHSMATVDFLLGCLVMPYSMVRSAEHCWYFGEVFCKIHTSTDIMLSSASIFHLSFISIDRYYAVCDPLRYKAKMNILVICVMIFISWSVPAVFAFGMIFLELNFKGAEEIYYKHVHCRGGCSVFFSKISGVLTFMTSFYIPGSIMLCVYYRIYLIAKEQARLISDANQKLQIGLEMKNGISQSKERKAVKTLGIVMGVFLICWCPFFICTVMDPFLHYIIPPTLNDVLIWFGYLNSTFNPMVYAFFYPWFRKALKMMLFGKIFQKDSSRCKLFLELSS

[11] = molecular target: T3, Trace amine-associated receptor 1; assay: Counterscreen for agonists of the human trace amine associated receptor 1 (hTAAR1): Fluorescence-based cell-based high throughput dose response assay to identify hTAAR1 agonist that also desensitize TAAR1 receptor response.; assay type: functional
cells [12] = assay type: functional, cell-based; remark: listed apart in the source
[13] = Luminescence Cell-Based Dose Confirmation HTS to Identify Activators of 5'UTR Stem-Loop Driven Alpha-Synuclein mRNA Translation in H4 Neuroglioblastoma Cells. [Related pubchem assays: 1829 (Project Summary), 1814 (Primary HTS)]; assay type: functional
[14] = Luminescence Cell-Based Dose Response HTS to Identify Activators of Luciferase Translation or Activity in H4 […] Cells. [Related pubchem assays: 1829 (Project Summary), 1814 (Primary HTS)]; assay type: functional
H4 = assay: Luminescence Cell-Based Dose Response HTS to Identify Activators of 5'UTR Stem-Loop Driven Prion Protein mRNA Translation in H4 Neuroglioblastoma Cells. [Related pubchem assays: 1829 (Project Summary), 1814 (Primary HTS)]; assay type: functional; conditions: Homo sapiens
[15] = molecular target: T4, DNA repair and recombination protein RAD54-like (Homo sapiens, UniProt Q92698); assay: RAD54 Holliday junction migration blockers – biochemical, fluorescence, cherry-picked samples, dose series, confirmation (AID 651657); assay type: functional
T4 sequence (Q92698 whole entry): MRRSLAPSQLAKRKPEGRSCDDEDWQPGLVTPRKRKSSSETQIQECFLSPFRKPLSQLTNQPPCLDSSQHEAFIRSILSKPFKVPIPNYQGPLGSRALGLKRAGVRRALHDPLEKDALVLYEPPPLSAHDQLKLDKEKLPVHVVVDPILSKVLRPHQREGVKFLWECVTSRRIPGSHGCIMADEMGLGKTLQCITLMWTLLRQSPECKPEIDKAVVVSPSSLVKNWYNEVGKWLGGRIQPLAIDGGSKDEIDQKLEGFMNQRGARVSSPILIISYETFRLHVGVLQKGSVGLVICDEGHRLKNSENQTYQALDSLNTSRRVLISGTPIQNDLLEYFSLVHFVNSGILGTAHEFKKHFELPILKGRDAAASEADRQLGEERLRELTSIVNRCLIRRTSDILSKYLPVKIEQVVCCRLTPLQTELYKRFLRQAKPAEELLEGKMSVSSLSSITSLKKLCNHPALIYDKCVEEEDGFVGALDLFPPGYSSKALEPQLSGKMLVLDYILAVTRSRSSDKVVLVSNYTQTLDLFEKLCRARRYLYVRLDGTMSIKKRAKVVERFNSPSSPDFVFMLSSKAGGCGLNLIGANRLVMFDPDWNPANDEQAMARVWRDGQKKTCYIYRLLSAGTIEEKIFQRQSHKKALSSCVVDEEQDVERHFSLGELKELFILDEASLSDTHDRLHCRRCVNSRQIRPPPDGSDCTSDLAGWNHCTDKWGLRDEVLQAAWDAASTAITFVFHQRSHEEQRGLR

[16] = molecular target: T5, DNA repair protein RAD52 homolog (Homo sapiens, UniProt P43351); assay type: functional, biochemical
T5 sequence (P43351 whole entry): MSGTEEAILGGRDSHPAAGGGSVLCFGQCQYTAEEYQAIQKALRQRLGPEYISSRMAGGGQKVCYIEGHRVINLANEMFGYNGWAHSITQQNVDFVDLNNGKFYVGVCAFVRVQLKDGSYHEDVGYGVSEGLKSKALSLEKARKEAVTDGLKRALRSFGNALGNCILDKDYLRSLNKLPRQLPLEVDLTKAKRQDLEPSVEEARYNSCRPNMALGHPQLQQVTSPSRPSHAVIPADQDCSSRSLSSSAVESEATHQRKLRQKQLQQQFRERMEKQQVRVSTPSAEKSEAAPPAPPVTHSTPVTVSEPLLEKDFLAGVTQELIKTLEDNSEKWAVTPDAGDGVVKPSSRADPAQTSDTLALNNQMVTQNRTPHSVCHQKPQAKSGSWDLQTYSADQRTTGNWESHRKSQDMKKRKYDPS

[17] = general mammalian cell viability loss – inhibitor set, cherry-pick, set 2, cytotoxicity control for miR-122 modulator project, dose response (AID 720697); assay type: functional, cell-based
[18] = A549 cell cytotoxicity, dose response, cytotoxicity control, plate reader, cherry-pick, antagonist series (AID 743412); assay type: functional, cell-based
[19] = toxicity toward HepG2 liver cells – cell-based, plate reader, cherry-pick, antagonist series, cytotoxicity control, dose response (AID 743416); assay type: functional
[20] = blockers of bursicon-stimulated LGR2 cAMP reporter – cell-based, HEK293, CRE-luciferase reporter, cherry pick, set 2, dose response (AID 743343); assay type: functional;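 note: transfected cells were stimulated with diluted bursicon conditioned medium after compound addition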
[21] = blockade of melanocortin 4 receptor signaling – cell-based, plate reader, cherry pick, counter-screen for LGR2 antagonist project, dose response (AID 743444); assay type: functional;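 note: transfected HEK 293 cells stimulated with alpha-MSH peptide; potency of inhibitors of the alpha-MSH evoked signal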
[22] = viability loss in HEK293 cells – cell-based, plate reader, cherry-picked samples, cytotoxicity control, dose response (AID 743446); assay type: functional
[23] = TNFa-induced NF-kB reporter signal decrease – HEK293 LMP1 reporter cells, dry powder, set 2, selectivity assay for EBV LMP1 NF-kB inhibitor project, dose response (AID 624369); assay type: functional
[24] = Luminescence Cell-Based Dose Response HTS to Identify Inhibitors of 5'UTR Stem-Loop Driven Prion Protein mRNA Translation in H4 Neuroglioblastoma Cells. [Related pubchem assays: 1827 (Project Summary), 1813 (Primary HTS)]; assay type: functional
[25] = molecular target: T6, Heat shock factor protein 1 (Mus musculus, UniProt P38532); assay: decrease of HSF1-responsive luciferase luminescence – cell-based, NIH3T3, dose retest, confirmation (AID 2382); assay type: functional;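 note: NIH3T3 fibroblasts with HSF1-driven luciferase reporter stressed by proteasome inhibitor MG132; luminescence from HSF1-driven luciferase expression after 8 hours of MG132 stress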
T6 sequence (P38532 whole entry): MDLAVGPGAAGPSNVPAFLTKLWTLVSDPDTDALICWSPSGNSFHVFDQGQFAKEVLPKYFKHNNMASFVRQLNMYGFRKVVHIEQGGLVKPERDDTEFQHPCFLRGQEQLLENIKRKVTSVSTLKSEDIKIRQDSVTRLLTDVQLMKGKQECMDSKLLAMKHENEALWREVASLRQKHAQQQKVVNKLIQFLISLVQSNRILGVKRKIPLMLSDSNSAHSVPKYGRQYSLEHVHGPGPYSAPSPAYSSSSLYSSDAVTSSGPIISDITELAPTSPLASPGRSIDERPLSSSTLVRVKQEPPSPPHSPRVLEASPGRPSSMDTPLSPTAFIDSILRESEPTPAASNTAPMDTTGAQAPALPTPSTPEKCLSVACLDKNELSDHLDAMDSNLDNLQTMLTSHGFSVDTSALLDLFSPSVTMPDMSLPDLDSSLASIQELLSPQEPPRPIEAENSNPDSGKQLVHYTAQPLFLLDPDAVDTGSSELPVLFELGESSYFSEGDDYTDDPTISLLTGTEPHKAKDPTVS

[26] = alpha-synuclein stem-loop luciferase translation blockers – H4 neuroglioma cells, luminescence, confirmation (AID 1988); assay type: functional, cell-based
[27] = activation of miR-122 Renilla sensor silencing – cell-based, Huh7 psiCHECK-miR122, Renilla luciferase, cherry-picked, dose response (AID 651956); assay type: functional;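 note: huh7 hepatoma cells stably carrying a psiCHECK-2 miR-122 sensor plasmid; renilla luciferase signal reporting endogenous miR-122 activity after 48 h compound exposure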
[28] = general mammalian cell viability loss – activator set, cherry-pick, cytotoxicity control for miR-122 modulator project, dose response (AID 720690); assay type: functional, cell-based;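 note: HEK293T human cells scored for general mammalian cytotoxicity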

Beta-lactamase (Salmonella choleraesuis (strain SC-B67), UniProt Q5J463), sequence (Q5J463 whole entry): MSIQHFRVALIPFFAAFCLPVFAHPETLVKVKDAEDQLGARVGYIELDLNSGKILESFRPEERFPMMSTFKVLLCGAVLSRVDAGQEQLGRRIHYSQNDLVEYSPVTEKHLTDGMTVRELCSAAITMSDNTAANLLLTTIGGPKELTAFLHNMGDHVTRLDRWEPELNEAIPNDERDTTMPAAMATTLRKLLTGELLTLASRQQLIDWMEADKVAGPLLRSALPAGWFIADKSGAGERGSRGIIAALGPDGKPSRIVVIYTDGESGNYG

## CCCc1cc(=O)oc2c3c(cc(OCC(=O)N4CCC[C@H]4C(=O)O)c12)OC(C)(C)CC3
Beta-lactamase [1]
  IC50: > 59.6 µM (inactive)
Beta-lactamase [2]
  IC50: > 59.6 µM (inactive)
Beta-lactamase [3]
  IC50: > 59.6 µM (inactive)

## Cc1ccc(C(S)=NCS(=O)(=O)c2ccc(C)cc2)cc1
[4]
  IC50: 5.2 µM (active)

## O=C(CS(=O)(=O)Cc1ccccc1)N1CCc2ccccc2C1
[5]
  IC50: 11.4 µM (active)
[6]
  IC50: 6.67 µM (active)

## Clc1ccc(-c2nc3ccc(Cl)cn3c2Cc2ccsc2)cc1
[7]
  EC50: > 91.2 µM (inactive)
[8]
  EC50: > 91.2 µM (inactive)

## O=C(NCCc1ccccc1Cl)[C@@H]1CCCN1C(=O)[C@@H](NC(=O)N1CCOCC1)C1CCCCC1
Cells [9]
  IC50: > 29.9 µM (inactive)
[10]
  EC50: 5.36 µM (active)
[11]
  IC50: 6.35 µM (active)
Cells [12]
  EC50: > 29.9 µM (inactive)

## O=C(/C=C/NNC(=O)c1ccc(Cl)cc1)c1ccccc1
[13]
  EC50: > 120 µM (not active)
[14]
  EC50: > 120 µM (not active)
H4
  EC50: 49.6 µM (active)
[5]
  IC50: > 100 µM (inactive)
[6]
  IC50: 37.4 µM (active)

## COc1ccc(C)c2sc(N(CCN(C)C)C(=O)c3ccc4ccccc4c3)nc12
[15]
  AC50: 79.4 µM (active)
[16]
  AC50: 14.1 µM (active)

## O=C(CSc1nnc2ccccn12)Nc1ncc(Cl)cc1Cl
[7]
  EC50: > 91.2 µM (inactive)
[8]
  EC50: > 91.2 µM (inactive)

## O=C(NCCc1ccccc1)C(=O)NCC1OCCN1S(=O)(=O)c1ccccc1 (stereo unspecified)
Cells [9]
  IC50: > 29.9 µM (inactive)
[10]
  EC50: 5.39 µM (active)
[11]
  IC50: 11.8 µM (inactive)
Cells [12]
  EC50: > 29.9 µM (inactive)

## O=C(c1ccco1)N1CCN(C2CC(=O)N(c3ccccc3)C2=O)CC1 (stereo unspecified)
[17]
  AC50: 5.02 µM (active)

## Nc1c(C(=O)N2CCOCC2)sc2nc3c(cc12)CCCC3
[18]
  AC50: > 52 µM (inactive)
[19]
  AC50: > 52 µM (inactive)
[20]
  AC50: 2.38 µM (active)
[21]
  AC50: 3.2 µM (active)
[22]
  AC50: > 52 µM (inactive)

## C[C@@H]1CN([C@H](C)CO)S(=O)(=O)c2ccc(/C=C/c3ccccc3)cc2O[C@H]1CN(C)C(=O)NC1CCCCC1
[23]
  AbsAC35: 64.61 µM

## N=C(N)NCCC[C@@H]1NC(=O)c2cc([N+](=O)[O-])cc(F)c2NCCCC[C@@H](C(N)=O)NC(=O)CNC1=O
[16]
  AC50: 14.8 µM (active)

## Cc1ccc(-c2nc(-c3ccccc3)no2)c(Cl)c1
[24]
  EC50: 8.33 µM (active)
[25]
  EC50: < 0.16 µM (active)
[26]
  EC50: 9.82 µM (inconclusive)
[18]
  AC50: > 52 µM (inactive)
[19]
  AC50: > 52 µM (inactive)
[20]
  AC50: 0.842 µM (active)
[21]
  AC50: 1.26 µM (active)
[22]
  AC50: 39.7 µM (active)

## COc1ccccc1CCNCc1ccc(OC)c(OC)c1OC
Cells [9]
  IC50: > 29.9 µM (inactive)
[10]
  EC50: 2.37 µM (active)
[11]
  IC50: 10.5 µM (inactive)
Cells [12]
  EC50: > 29.9 µM (inactive)

## CCNC(=O)C[C@H]1CC[C@@H]2[C@@H](COc3ccc(NC(=O)c4cccc(C(F)(F)F)c4)cc3C(=O)N2C)O1
[17]
  AC50: 0.469 µM (active)

## Cc1ccc(-c2c(C(=O)O)c(C(=O)O)c3n2CSC3)cc1
Beta-lactamase [1]
  IC50: > 59.6 µM (inactive)
Beta-lactamase [2]
  IC50: > 59.6 µM (inactive)
Beta-lactamase [3]
  IC50: 15.7 µM (inactive)

## CN1C(=O)c2cc(NC(=O)c3ccc(C(F)(F)F)cc3)ccc2OC[C@@H]2O[C@@H](CC(=O)NCc3ccc4c(c3)OCO4)CC[C@@H]21
[27]
  AC50: 13.8 µM (active)
[28]
  AC50: 23.8 µM (active)

From ChEMBL document CHEMBL1201862, “PubChem BioAssay data set” (2004)
